Source: the NIST ThermoML archive (doi:10.1016/j.jct.2016.05.023)
± gives the expanded uncertainty stated by the source.

Settings: Crystal; DTA
`CCn1cc[n+](C)c1.[Cl-]` [1-ethyl-3-methylimidazolium chloride] showed a Normal melting temperature of 84 ± 2 °C. Work on `CC(=O)[O-].CCCCCCCCCCCCCC[P+](CCCCCC)(CCCCCC)CCCCCC` [trihexyl(tetradecyl)phosphonium acetate] yielded a Normal melting temperature of -67 ± 2 °C. Work on `CCCCCCCCCCCCCC[P+](CCCCCC)(CCCCCC)CCCCCC.[Cl-]` [trihexyl(tetradecyl)phosphonium chloride] yielded a Normal melting temperature of -66 ± 2 °C.

Same assay, conditions: Glass; DSC
In the case of `CC(=O)[O-].CCCCn1cc[n+](C)c1` [1-butyl-3-methylimidazolium acetate], the Glass transition temperature is reported as -63 ± 2 °C. `CCCCn1cc[n+](C)c1.[Cl-]` [1-butyl-3-methylimidazolium chloride] gave a Glass transition temperature of -52 ± 2 °C. `CC(=O)[O-].CCn1cc[n+](C)c1` [1-ethyl-3-methylimidazolium acetate] showed a Glass transition temperature of -71 ± 2 °C. `CCCCCCn1cc[n+](C)c1.[Cl-]` [1-hexyl-3-methylimidazolium chloride] showed a Glass transition temperature of -65 ± 2 °C. Work on `CCCCCCCC[n+]1ccn(C)c1.[Cl-]` [1-methyl-3-octylimidazolium chloride] yielded a Glass transition temperature of -74 ± 2 °C.
